Experiments:
hOCT2 [1] = molecular target: T1, hOCT2 (Homo sapiens, UniProt O15244); conditions: cited from earlier work
T1 sequence (O15244 1-555): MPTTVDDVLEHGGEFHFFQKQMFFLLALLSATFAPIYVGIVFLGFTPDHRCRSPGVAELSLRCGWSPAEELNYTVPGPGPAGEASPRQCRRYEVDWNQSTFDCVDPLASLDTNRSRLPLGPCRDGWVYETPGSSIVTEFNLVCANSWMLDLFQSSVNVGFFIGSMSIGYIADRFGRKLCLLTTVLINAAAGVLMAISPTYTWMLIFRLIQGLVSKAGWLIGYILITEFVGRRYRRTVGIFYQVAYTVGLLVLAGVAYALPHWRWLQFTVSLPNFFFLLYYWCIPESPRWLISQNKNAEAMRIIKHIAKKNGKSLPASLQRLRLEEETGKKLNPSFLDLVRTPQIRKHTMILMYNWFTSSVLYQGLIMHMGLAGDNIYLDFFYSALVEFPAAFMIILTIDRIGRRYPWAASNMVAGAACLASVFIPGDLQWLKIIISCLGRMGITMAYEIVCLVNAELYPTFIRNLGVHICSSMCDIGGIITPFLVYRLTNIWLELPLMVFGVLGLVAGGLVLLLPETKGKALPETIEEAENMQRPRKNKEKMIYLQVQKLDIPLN

hMATE2-K = molecular target: T2, hMATE2-K (Homo sapiens, UniProt Q86VL8); test: Inhibition of hMATE2-K-mediated substrate uptake in transfected HEK293 cells (pH 8.0); type: in vitro ADME; conditions: HEK293; 20 µM inhibitor; 1 µM mIBG; 2 min, 37 °C
T2 construct: expressed in transfected cells

hOCT2 [2] = molecular target: T1, hOCT2; test: Inhibition of hOCT2-mediated substrate uptake in transfected HEK293 cells; type: in vitro ADME; set-up: expressed in transfected cells; conditions: HEK293; 20 µM inhibitor; 1 µM mIBG; 2 min, 37 °C
hOCT1 = molecular target: T3, hOCT1 (Homo sapiens, UniProt O15245); test: Inhibition of hOCT1-mediated substrate uptake in transfected HEK293 cells; type: in vitro ADME; conditions: HEK293; 20 µM inhibitor; 1 µM mIBG; 2 min, 37 °C
T3 construct: expressed in transfected cells
T3 sequence (O15245 1-554): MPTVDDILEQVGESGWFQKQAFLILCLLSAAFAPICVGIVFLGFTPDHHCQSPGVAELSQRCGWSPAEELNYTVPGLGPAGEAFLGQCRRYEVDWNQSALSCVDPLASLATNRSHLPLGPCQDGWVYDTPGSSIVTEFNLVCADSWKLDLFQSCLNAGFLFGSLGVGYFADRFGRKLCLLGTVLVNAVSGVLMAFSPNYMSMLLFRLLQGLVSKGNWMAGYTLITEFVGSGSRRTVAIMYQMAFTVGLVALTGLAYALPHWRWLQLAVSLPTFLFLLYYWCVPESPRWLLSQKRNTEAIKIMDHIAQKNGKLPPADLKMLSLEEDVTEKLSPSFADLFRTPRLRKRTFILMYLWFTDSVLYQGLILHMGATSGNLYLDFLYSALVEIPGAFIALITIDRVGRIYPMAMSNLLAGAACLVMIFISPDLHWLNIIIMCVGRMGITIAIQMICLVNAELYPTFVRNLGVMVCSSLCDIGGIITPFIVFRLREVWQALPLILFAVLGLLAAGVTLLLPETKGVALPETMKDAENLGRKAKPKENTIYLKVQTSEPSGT

hOCT3 = molecular target: T4, hOCT3 (Homo sapiens, UniProt O75751); test: Inhibition of hOCT3-mediated substrate uptake in transfected HEK293 cells; type: in vitro ADME; conditions: HEK293; 20 µM inhibitor; 1 µM mIBG; 2 min, 37 °C; read-out: inhibition of mIBG uptake by hOCT3
T4 construct: expressed in transfected cells
T4 sequence (O75751 1-556): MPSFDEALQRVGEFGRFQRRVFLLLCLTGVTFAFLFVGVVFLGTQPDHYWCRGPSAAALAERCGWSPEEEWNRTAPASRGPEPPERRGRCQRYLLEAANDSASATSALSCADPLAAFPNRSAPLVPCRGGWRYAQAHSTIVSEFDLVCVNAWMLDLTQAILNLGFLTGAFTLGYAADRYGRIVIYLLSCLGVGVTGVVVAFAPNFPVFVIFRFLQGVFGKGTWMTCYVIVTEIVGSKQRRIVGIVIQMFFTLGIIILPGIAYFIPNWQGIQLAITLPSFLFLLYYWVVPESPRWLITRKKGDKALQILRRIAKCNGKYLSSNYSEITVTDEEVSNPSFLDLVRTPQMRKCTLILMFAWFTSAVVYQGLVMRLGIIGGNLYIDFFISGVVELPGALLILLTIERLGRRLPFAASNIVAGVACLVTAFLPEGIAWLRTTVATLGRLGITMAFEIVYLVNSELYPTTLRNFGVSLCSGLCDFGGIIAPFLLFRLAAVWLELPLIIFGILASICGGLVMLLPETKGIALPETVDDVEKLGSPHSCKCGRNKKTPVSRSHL

hMATE1 = molecular target: T5, hMATE1 (Homo sapiens, UniProt Q96FL8); test: Inhibition of hMATE1-mediated substrate uptake in transfected HEK293 cells (pH 8.0); type: in vitro ADME; conditions: HEK293; 20 µM inhibitor; 1 µM mIBG; 2 min, 37 °C
T5 construct: expressed in transfected cells
T5 sequence (Q96FL8 1-570): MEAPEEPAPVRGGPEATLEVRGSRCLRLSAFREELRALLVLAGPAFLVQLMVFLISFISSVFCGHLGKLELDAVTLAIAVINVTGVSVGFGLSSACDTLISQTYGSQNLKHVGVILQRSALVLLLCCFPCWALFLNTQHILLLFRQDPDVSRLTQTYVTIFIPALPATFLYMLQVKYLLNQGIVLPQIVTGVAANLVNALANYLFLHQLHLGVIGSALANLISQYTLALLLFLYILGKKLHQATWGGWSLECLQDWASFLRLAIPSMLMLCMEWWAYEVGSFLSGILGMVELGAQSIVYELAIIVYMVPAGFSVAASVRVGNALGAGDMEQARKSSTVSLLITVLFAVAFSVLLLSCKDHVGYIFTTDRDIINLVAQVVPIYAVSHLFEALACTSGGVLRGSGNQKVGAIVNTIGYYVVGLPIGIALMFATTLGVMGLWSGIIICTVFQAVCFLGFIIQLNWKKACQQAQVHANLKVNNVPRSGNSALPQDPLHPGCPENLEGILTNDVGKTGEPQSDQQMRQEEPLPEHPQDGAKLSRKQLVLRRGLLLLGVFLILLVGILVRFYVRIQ

T2 sequence (Q86VL8 1-566 isoform Q86VL8-3): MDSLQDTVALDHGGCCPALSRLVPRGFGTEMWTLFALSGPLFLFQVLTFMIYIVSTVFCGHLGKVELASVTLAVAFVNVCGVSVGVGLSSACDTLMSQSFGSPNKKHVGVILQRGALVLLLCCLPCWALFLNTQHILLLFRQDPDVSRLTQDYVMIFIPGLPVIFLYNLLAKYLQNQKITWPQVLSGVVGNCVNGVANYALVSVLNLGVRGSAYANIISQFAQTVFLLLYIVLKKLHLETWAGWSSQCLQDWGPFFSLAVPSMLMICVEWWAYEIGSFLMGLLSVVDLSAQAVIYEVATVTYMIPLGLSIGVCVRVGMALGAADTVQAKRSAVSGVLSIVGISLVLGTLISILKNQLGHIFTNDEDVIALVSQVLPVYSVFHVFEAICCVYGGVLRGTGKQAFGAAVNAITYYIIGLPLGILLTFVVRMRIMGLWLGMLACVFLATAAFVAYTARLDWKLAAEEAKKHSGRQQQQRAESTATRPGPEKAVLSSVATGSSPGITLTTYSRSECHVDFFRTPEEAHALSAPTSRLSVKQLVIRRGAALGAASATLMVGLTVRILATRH

| SMILES | higher potency on OCT2 with atenolol as substrate compared with metformin (hOCT2 [1]) | inhibition at 20 µM (hMATE2-K) | inhibition at 20 µM (hOCT2 [2]) | inhibition at 20 µM (hOCT1) | inhibition at 20 µM (hOCT3) | inhibition at 20 µM (hMATE1) |
| --- | --- | --- | --- | --- | --- | --- |
| CN/C(=N/CCSCc1nc[nH]c1C)NC#N [cimetidine] | 10 fold | – | – | – | – | – |
| C#Cc1cccc(Nc2ncnc3cc(OCCOC)c(OCCOC)cc23)c1 [erlotinib, Erlotinib] | – | ≤ 50% | ≤ 50% | – | – | – |
| C[C@H]1Oc2cc(cnc2N)-c2c(nn(C)c2C#N)CN(C)C(=O)c2ccc(F)cc21 [lorlatinib] | – | ≤ 50% | ≤ 50% | ≤ 50% | ≤ 50% | ≤ 50% |

Source: publication PMC10534724, “Interaction of ALK Inhibitors with Polyspecific Organic Cation Transporters and the Impact of Substrate-Dependent Inhibition on the Prediction of Drug–Drug Interactions” (Pharmaceutics, 2023)
